Measurements from PubChem BioAssay (NCI).
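Each compound was tested at five concentrations against cells in 96-well plates for 48 hours. At the TGI there is no net growth.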

Assays:
Test in all cases: NCI tumour cell line growth inhibition, 48 h
NCI-H226 lung = system: NCI-H226 lung
NCI-H460 lung = system: NCI-H460 lung
EKVX NSCLC = system: EKVX NSCLC
RXF 393 renal = system: RXF 393 renal
HOP-18 NSCLC = system: HOP-18 NSCLC
HT29 colon = system: HT29 colon
SNB-78 CNS = system: SNB-78 CNS
SK-OV-3 ovarian = system: SK-OV-3 ovarian
CCRF-CEM leukemia = system: CCRF-CEM leukemia
SNB-75 CNS = system: SNB-75 CNS
IGROV1 ovarian = system: IGROV1 ovarian
MOLT-4 leukemia = system: MOLT-4 leukemia
CAKI-1 renal = system: CAKI-1 renal
SNB-19 CNS = system: SNB-19 CNS
NCI-H522 lung = system: NCI-H522 lung
SF-539 CNS = system: SF-539 CNS
HCC-2998 colon = system: HCC-2998 colon
OVCAR-8 ovarian = system: OVCAR-8 ovarian
HCT-15 colon = system: HCT-15 colon
KM12 colon = system: KM12 colon
SF-295 CNS = system: SF-295 CNS
XF 498 CNS = system: XF 498 CNS
RPMI-8226 leukemia = system: RPMI-8226 leukemia
DMS 114 small cell lung = system: DMS 114 small cell lung
SF-268 CNS = system: SF-268 CNS
P388 leukemia = system: P388 leukemia
SN12C renal = system: SN12C renal
A498 renal = system: A498 renal
DLD-1 colon = system: DLD-1 colon
SN12K1 renal = system: SN12K1 renal
MCF7 breast = system: MCF7 breast
UO-31 renal = system: UO-31 renal
UACC-257 melanoma = system: UACC-257 melanoma
SK-MEL-5 melanoma = system: SK-MEL-5 melanoma
NCI/ADR-RES ovarian = system: NCI/ADR-RES ovarian
MALME-3M melanoma = system: MALME-3M melanoma
A549 NSCLC = system: A549 NSCLC
SK-MEL-28 melanoma = system: SK-MEL-28 melanoma
COLO 205 colon = system: COLO 205 colon
OVCAR-4 ovarian = system: OVCAR-4 ovarian
OVCAR-5 ovarian = system: OVCAR-5 ovarian
HOP-92 NSCLC = system: HOP-92 NSCLC
SW-620 colon = system: SW-620 colon
SK-MEL-2 melanoma = system: SK-MEL-2 melanoma
DMS 273 small cell lung = system: DMS 273 small cell lung
K-562 leukemia = system: K-562 leukemia
KM20L2 colon = system: KM20L2 colon
U251 CNS = system: U251 CNS
HL-60(TB) leukemia = system: HL-60(TB) leukemia
OVCAR-3 ovarian = system: OVCAR-3 ovarian
NCI-H23 lung = system: NCI-H23 lung
LOX IMVI melanoma = system: LOX IMVI melanoma
P388/ADR leukemia = system: P388/ADR leukemia
HCT-116 colon = system: HCT-116 colon
HOP-62 NSCLC = system: HOP-62 NSCLC
UACC-62 melanoma = system: UACC-62 melanoma

C=CCCCCn1c2ccccc2c2c(C)c3cnccc3c(C)c21
TGI (NCI-H226 lung): 94.9 µM | TGI (NCI-H460 lung): 39.2 µM | TGI (EKVX NSCLC): 34.4 µM | TGI (RXF 393 renal): 43 µM | TGI (HOP-18 NSCLC): 35.6 µM | TGI (HT29 colon): 25.7 µM | TGI (SNB-78 CNS): 46.3 µM | TGI (SK-OV-3 ovarian): 35.9 µM | TGI (CCRF-CEM leukemia): 14.3 µM | TGI (SNB-75 CNS): 53.7 µM | TGI (IGROV1 ovarian): 46.4 µM | TGI (MOLT-4 leukemia): 9.47 µM | TGI (CAKI-1 renal): 27.8 µM | TGI (SNB-19 CNS): 37.9 µM | TGI (NCI-H522 lung): 18 µM | TGI (SF-539 CNS): 33.5 µM | TGI (HCC-2998 colon): 51.2 µM | TGI (OVCAR-8 ovarian): 21.2 µM | TGI (HCT-15 colon): 27.5 µM | TGI (KM12 colon): 42.6 µM | TGI (SF-295 CNS): 26 µM | TGI (XF 498 CNS): 4.36 µM | TGI (RPMI-8226 leukemia): 12.8 µM | TGI (DMS 114 small cell lung): 16.8 µM | TGI (SF-268 CNS): 77.8 µM | TGI (P388 leukemia): 10.2 µM | TGI (SN12C renal): 29.7 µM | TGI (A498 renal): 17.8 µM | TGI (DLD-1 colon): 29.9 µM | TGI (SN12K1 renal): 44.3 µM | TGI (MCF7 breast): 36.7 µM | TGI (UO-31 renal): 23.8 µM | TGI (UACC-257 melanoma): 18.7 µM | TGI (SK-MEL-5 melanoma): 16.7 µM | TGI (NCI/ADR-RES ovarian): 33.7 µM | TGI (MALME-3M melanoma): 36.8 µM | TGI (A549 NSCLC): 32.2 µM | TGI (SK-MEL-28 melanoma): 40.8 µM | TGI (COLO 205 colon): 18 µM | TGI (OVCAR-4 ovarian): 21.8 µM | TGI (OVCAR-5 ovarian): 40.4 µM | TGI (HOP-92 NSCLC): 19.8 µM | TGI (SW-620 colon): 73.6 µM | TGI (SK-MEL-2 melanoma): 47.3 µM | TGI (DMS 273 small cell lung): 20.5 µM | TGI (K-562 leukemia): 16.1 µM | TGI (KM20L2 colon): 31.9 µM | TGI (U251 CNS): 40.6 µM | TGI (HL-60(TB) leukemia): 4.92 µM | TGI (OVCAR-3 ovarian): 19.9 µM | TGI (NCI-H23 lung): 32.8 µM | TGI (LOX IMVI melanoma): 82.5 µM | TGI (P388/ADR leukemia): 15.8 µM | TGI (HCT-116 colon): 20.9 µM | TGI (HOP-62 NSCLC): 35.9 µM | TGI (UACC-62 melanoma): 40.9 µM
